Laboratory results as given in patent US20230167073A1 (Teijin Pharma Limited, priority 2020, published 2023).
pIC50: −log10 of the molar value.

The molecules below were run against T1, Human TRPC6 (Homo sapiens, UniProt Q9Y210) (assay: Evaluation of TRPC6 channel inhibitory activity (1), FLIPR Calcium 5 Assay Kit, OAG stimulation (Compound Nos. 1-1293)). Conditions: not given.
T1 construct: expressed in transfected cells
T1 sequence (Q9Y210 1-931): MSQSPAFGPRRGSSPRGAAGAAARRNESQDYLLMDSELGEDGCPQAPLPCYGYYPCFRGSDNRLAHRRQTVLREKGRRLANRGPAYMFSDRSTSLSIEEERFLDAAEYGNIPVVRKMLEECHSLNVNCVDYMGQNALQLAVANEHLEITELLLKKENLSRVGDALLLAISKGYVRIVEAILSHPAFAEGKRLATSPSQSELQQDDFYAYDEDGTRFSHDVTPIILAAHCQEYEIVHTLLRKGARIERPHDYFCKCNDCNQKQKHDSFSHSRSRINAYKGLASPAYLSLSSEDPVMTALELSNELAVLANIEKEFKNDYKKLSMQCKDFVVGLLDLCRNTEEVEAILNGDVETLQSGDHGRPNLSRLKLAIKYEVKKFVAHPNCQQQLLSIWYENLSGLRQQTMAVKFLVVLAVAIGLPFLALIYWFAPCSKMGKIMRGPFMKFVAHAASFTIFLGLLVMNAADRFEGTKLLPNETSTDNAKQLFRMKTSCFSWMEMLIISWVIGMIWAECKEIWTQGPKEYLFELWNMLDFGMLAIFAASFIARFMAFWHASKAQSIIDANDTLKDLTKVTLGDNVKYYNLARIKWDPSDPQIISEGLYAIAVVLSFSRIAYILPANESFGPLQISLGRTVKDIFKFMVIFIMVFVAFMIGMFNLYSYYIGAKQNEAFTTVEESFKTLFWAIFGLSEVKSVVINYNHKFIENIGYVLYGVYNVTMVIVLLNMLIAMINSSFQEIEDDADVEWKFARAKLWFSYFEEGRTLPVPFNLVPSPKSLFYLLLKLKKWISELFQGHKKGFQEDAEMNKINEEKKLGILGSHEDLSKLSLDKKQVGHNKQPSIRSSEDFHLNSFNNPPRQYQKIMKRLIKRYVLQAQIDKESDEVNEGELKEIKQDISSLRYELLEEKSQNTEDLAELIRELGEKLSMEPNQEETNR
Format: cell-based
How it was run: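 Stable human TRPC6 line; fluorescent Ca2+ dye loading, then 20 min compound exposure before 30 μM OAG trigger. Peak-minus-baseline signal converted to % inhibition against untreated and unstimulated wells; potency given as pIC50 band.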

| SMILES | pIC50 |
| --- | --- |
| Cn1nc(N2C3CCC2COC3)cc1Oc1cc(C#N)ccc1-c1ncc(CN)cn1 [compound 944, 4-[5-(aminomethyl)pyrimidin-2-yl]-3-[2-methyl-5-(3-oxa-8-azabicyclo[3.2.1]octan-8-yl)pyrazol-3-yl]oxybenzonitrile] | 6.00 to 8.00 |

Same assay, conditions: Human TRPC6 stably-expressing cells, OAG 30 μM, FLIPR Calcium 5 Assay Kit; read-out: Inhibitory activity (pIC50 class) (converted)

| SMILES | IC50 |
| --- | --- |
| Cc1nn(-c2ccccn2)c(C)c1Oc1cc(C#N)ccc1-c1ncc(CCN)cn1 [compound 941, 4-[5-(2-aminoethyl)pyrimidin-2-yl]-3-(3,5-dimethyl-1-pyridin-2-ylpyrazol-4-yl)oxybenzonitrile] | > 1000 nM |
| Cc1nn(C(C)C)c(C)c1Oc1cc(C#N)ccc1-c1ncc(CCN)cn1 [compound 942, 4-[5-(2-aminoethyl)pyrimidin-2-yl]-3-(3,5-dimethyl-1-propan-2-ylpyrazol-4-yl)oxybenzonitrile] | > 1000 nM |
| Cc1nn(CC(F)(F)F)c(C)c1Oc1cc(C#N)ccc1-c1ncc(CCN)cn1 [compound 943, 4-[5-(2-aminoethyl)pyrimidin-2-yl]-3-[3,5-dimethyl-1-(2,2,2-trifluoroethyl)pyrazol-4-yl]oxybenzonitrile] | > 1000 nM |
| Cn1nc(-c2ccnn2C)cc1Oc1cc(C#N)ccc1-c1ncc(CN)cn1 [compound 945, 4-[5-(aminomethyl)pyrimidin-2-yl]-3-[2-methyl-5-(2-methylpyrazol-3-yl)pyrazol-3-yl]oxybenzonitrile] | < 10 nM |
| Cn1ccc(-c2cc(Oc3cc(C#N)ccc3-c3ncc(CN)cn3)n(C)n2)n1 [compound 946, 4-[5-(aminomethyl)pyrimidin-2-yl]-3-[2-methyl-5-(1-methylpyrazol-3-yl)pyrazol-3-yl]oxybenzonitrile] | 10 to 1000 nM |
| Cn1cc(-c2cc(Oc3cc(C#N)ccc3-c3ncc(CN)cn3)n(C)n2)cn1 [compound 947, 4-[5-(aminomethyl)pyrimidin-2-yl]-3-[2-methyl-5-(1-methylpyrazol-4-yl)pyrazol-3-yl]oxybenzonitrile] | > 1000 nM |
| Cn1nc(-c2ccncn2)cc1Oc1cc(C#N)ccc1-c1ncc(CCN)cn1 [compound 949, 4-[5-(2-aminoethyl)pyrimidin-2-yl]-3-(2-methyl-5-pyrimidin-4-ylpyrazol-3-yl)oxybenzonitrile] | < 10 nM |
| Cn1nc(-c2cnccn2)cc1Oc1cc(C#N)ccc1-c1ncc(CCN)cn1 [compound 950, 4-[5-(2-aminoethyl)pyrimidin-2-yl]-3-(2-methyl-5-pyrazin-2-ylpyrazol-3-yl)oxybenzonitrile] | < 10 nM |
| Cn1nc(-c2cncs2)cc1Oc1cc(C#N)ccc1-c1ncc(CCN)cn1 [compound 951, 4-[5-(2-aminoethyl)pyrimidin-2-yl]-3-[2-methyl-5-(1,3-thiazol-5-yl)pyrazol-3-yl]oxybenzonitrile] | < 10 nM |
| Cn1nc(-c2cscn2)cc1Oc1cc(C#N)ccc1-c1ncc(CCN)cn1 [compound 952, 4-[5-(2-aminoethyl)pyrimidin-2-yl]-3-[2-methyl-5-(1,3-thiazol-4-yl)pyrazol-3-yl]oxybenzonitrile] | < 10 nM |
| CCc1nn(CC(C)C)cc1Oc1cc(C#N)ccc1-c1ncc(CCN)cn1 [compound 953, 4-[5-(2-aminoethyl)pyrimidin-2-yl]-3-[3-ethyl-1-(2-methylpropyl)pyrazol-4-yl]oxybenzonitrile] | < 10 nM |
| CCc1c(Oc2cc(C#N)ccc2-c2ncc(CCN)cn2)cnn1CC(C)C [compound 954, 4-[5-(2-aminoethyl)pyrimidin-2-yl]-3-[5-ethyl-1-(2-methylpropyl)pyrazol-4-yl]oxybenzonitrile] | 10 to 1000 nM |

Continued, values first:

| IC50 | SMILES |
| --- | --- |
| < 10 nM | CC(C)Cn1cc(Oc2cc(C#N)ccc2-c2ncc(CCN)cn2)c(C(F)(F)F)n1 [compound 955, 4-[5-(2-aminoethyl)pyrimidin-2-yl]-3-[1-(2-methylpropyl)-3-(trifluoromethyl)pyrazol-4-yl]oxybenzonitrile] |
| 10 to 1000 nM | CN(C)C(=O)c1cc(Oc2cc(C#N)ccc2-c2ncc(CN)cn2)n(C)n1 [compound 956, 5-[2-[5-(aminomethyl)pyrimidin-2-yl]-5-cyanophenoxy]-N,N,1-trimethylpyrazole-3-carboxamide] |
| < 10 nM | Cc1nc(-c2cc(Oc3cc(C#N)ccc3-c3ncc(CN)cn3)n(C)n2)cs1 [compound 957, 4-[5-(aminomethyl)pyrimidin-2-yl]-3-[2-methyl-5-(2-methyl-1,3-thiazol-4-yl)pyrazol-3-yl]oxybenzonitrile] |
| < 10 nM | Cc1ncsc1-c1cc(Oc2cc(C#N)ccc2-c2ncc(CN)cn2)n(C)n1 [compound 958, 4-[5-(aminomethyl)pyrimidin-2-yl]-3-[2-methyl-5-(4-methyl-1,3-thiazol-5-y)pyrazol-3-yl]oxybenzonitrile] |
| 10 to 1000 nM | Cc1csc(-c2cc(Oc3cc(C#N)ccc3-c3ncc(CN)cn3)n(C)n2)n1 [compound 959, 4-[5-(aminomethyl)pyrimidin-2-yl]-3-[2-methyl-5-(4-methyl-1,3-thiazol-2-yl)pyrazol-3-yl]oxybenzonitrile] |
| 10 to 1000 nM | Cc1cnc(-c2cc(Oc3cc(C#N)ccc3-c3ncc(CN)cn3)n(C)n2)s1 [compound 960, 4-[5-(aminomethyl)pyrimidin-2-yl]-3-[2-methyl-5-(5-methyl-1,3-thiazol-2-yl)pyrazol-3-yl]oxybenzonitrile] |
| > 1000 nM | Cc1nnc(-c2cc(Oc3cc(C#N)ccc3-c3ncc(CN)cn3)n(C)n2)s1 [compound 961, 4-[5-(aminomethyl)pyrimidin-2-yl]-3-[2-methyl-5-(5-methyl-1,3,4-thiadiazol-2-yl)pyrazol-3-yl]oxybenzonitrile] |
| 10 to 1000 nM | Cc1ncc(-c2cc(Oc3cc(C#N)ccc3-c3ncc(CN)cn3)n(C)n2)s1 [compound 962, 4-[5-(aminomethyl)pyrimidin-2-yl]-3-[2-methyl-5-(2-methyl-1,3-thiazol-5-yl)pyrazol-3-yl]oxybenzonitrile] |
| < 10 nM | Cc1scnc1-c1cc(Oc2cc(C#N)ccc2-c2ncc(CN)cn2)n(C)n1 [compound 963, 4-[5-(aminomethyl)pyrimidin-2-yl]-3-[2-methyl-5-(5-methyl-1,3-thiazol-4-yl)pyrazol-3-yl]oxybenzonitrile] |
| 10 to 1000 nM | Cn1nc(C#N)cc1Oc1cc(C#N)ccc1-c1ccc(CCN)cn1 [compound 964, 5-[2-[5-(2-aminoethyl)pyridin-2-yl]-5-cyanophenoxy]-1-methylpyrazole-3-carbonitrile] |
| 10 to 1000 nM | Cc1nc(Oc2cc(F)ccc2-c2ncc(CCN)cn2)cc(N2CCOCC2)n1 [compound 965, 2-[2-[4-fluoro-2-(2-methyl-6-morpholin-4-ylpyrimidin-4-yl)oxyphenyl]pyrimidin-5-yl]ethanamine] |
| < 10 nM | Cc1nn(CC(F)(F)F)cc1Oc1cc(F)ccc1-c1ncc(CCN)cn1 [compound 968, 2-[2-[4-fluoro-2-[3-methyl-1-(2,2,2-trifluoroethyl)pyrazol-4-yl]oxyphenyl]pyrimidin-5-yl]ethanamine] |
| < 10 nM | Cc1nn(-c2ccccn2)cc1Oc1cc(F)ccc1-c1ncc(CCN)cn1 [compound 969, 2-[2-[4-fluoro-2-(3-methyl-1-pyridin-2-ylpyrazol-4-yl)oxyphenyl]pyrimidin-5-yl]ethanamine] |
| > 1000 nM | Cc1c(Oc2cc(F)ccc2-c2ncc(CCN)cn2)cnn1CC(F)(F)F [compound 970, 2-[2-[4-fluoro-2-[5-methyl-1-(2,2,2-trifluoroethyl)pyrazol-4-yl]oxyphenyl]pyrimidin-5-yl]ethanamine] |
| > 1000 nM | Cc1c(Oc2cc(F)ccc2-c2ncc(CCN)cn2)cnn1-c1ccccn1 [compound 971, 2-[2-[4-fluoro-2-(5-methyl-1-pyridin-2-ylpyrazol-4-yl)oxyphenyl]pyrimidin-5-yl]ethanamine] |
| < 10 nM | CCN(CC)c1cc(Oc2cc(F)ccc2-c2ncc(CCN)cn2)n(C)n1 [compound 972, 5-[2-[5-(2-aminoethyl)pyrimidin-2-yl]-5-fluorophenoxy]-N,N-diethyl-1-methylpyrazole-3-amine] |
| 10 to 1000 nM | Cn1nc(N2CCOCC2)cc1Oc1cc(F)ccc1-c1ncc(CCN)cn1 [compound 973, 2-[2-[4-fluoro-2-(2-methyl-5-morpholin-4-ylpyrazol-3-yl)oxyphenyl]pyrimidin-5-yl]ethanamine] |
| 10 to 1000 nM | Cn1nc(N2CCOCC2)cc1Oc1cc(F)ccc1-c1ncc(CN)cn1 [compound 974, [2-[4-fluoro-2-(2-methyl-5-morpholin-4-ylpyrazol-3-yl)oxyphenyl]pyrimidin-5-yl]methanamine] |
| < 10 nM | Cn1nc(N2CCOCC2)cc1Oc1cc(F)ccc1-c1ccc(CCN)cn1 [compound 975, 2-[6-[4-fluoro-2-(2-methyl-5-morpholin-4-ylpyrazol-3-yl)oxyphenyl]pyridin-3-yl]ethanamine] |
